Columns and labels:
[1] = system: Wnt activity (Sp5-Luc reporter, Wnt-responsive promoter) in SW480 colon carcinoma cells; assay: Wnt activity screening assay: Sp5-Luc reporter gene assay in SW480 cells; format: cell-based; conditions: Homo sapiens, overnight incubation, 10-point curve starting from 10 μM
Method in brief: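 Luminescence (BrightGlo) was normalised to DMSO-only wells and fitted with a four-parameter variable-slope model for EC50; beyond 10 μM, % inhibition at 10 μM is given. Stable Sp5-Luc SW480 reporter cells, 4,000/well in 1% FBS, were exposed overnight at 37 °C to compounds, top 10 μM, 1:3 dilutions, 0.1% DMSO.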

[2] = system: primary human fibroblasts derived from IPF patients (LL29 cells) treated with TGF-β1; assay: Inhibition of the fibrotic process: αSMA staining in TGF-β1-treated LL29 fibroblasts; format: cell-based; conditions: Fibroblast; for EC50: 96 h, LL29 fibroblasts treated with TGF-β1 (20 ng/mL), 4 days, Table 4; for inhibition at 10 µM: LL29 fibroblasts treated with TGF-β1, Table 4, read-out: percent inhibition at 10 μM (given in parentheses for EC50 >10 μM)
Method in brief: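 EC50 from triplicate-well dose-response fits of % αSMA-positive cells, normalized to TGF-β1-stimulated DMSO controls, with SYTOX-positive dead cells excluded. LL29 IPF fibroblasts received compound at 10 μM–1.87 nM (0.1% DMSO) plus 20 ng/mL TGF-β1 for 4 days in 1% FBS medium; above 10 μM, % inhibition at 10 μM reported.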

EC50 [1] [µM] | Compound | EC50 [2] [µM] | inhibition at 10 µM [2] [%]
3.99 | CN1CCN(c2cccc3[nH]c(-c4n[nH]c5ccc(-c6cncc(NC(=O)C(F)(F)F)c6)nc45)nc23)CC1 [Compound 1127, 2,2,2-Trifluoro-N-(5-(3-(4-(4-methylpiperazin-1-yl)-1H-benzo[d]imidazol-2-yl)-1H-pyrazolo[4,3-b]pyridin-5-yl)pyridin-3-yl)acetamide] | 8.31 | –
2.2 | Cn1cc(-c2ccc3[nH]nc(-c4nc5c(-c6ccc(F)cc6)cccc5[nH]4)c3n2)c(CO)n1 [Compound 1129, (4-(3-(4-(4-Fluorophenyl)-1H-benzo[d]imidazol-2-yl)-1H-pyrazolo[4,3-b]pyridin-5-yl)-1-methyl-1H-pyrazol-3-yl)methanol] | 1.2 | –
3.39 | Cn1cc(-c2ccc3[nH]nc(-c4nc5c(N6CCCCC6)cccc5[nH]4)c3n2)c(CO)n1 [Compound 1134, (1-Methyl-4-(3-(4-(piperidin-1-yl)-1H-benzo[d]imidazol-2-yl)-1H-pyrazolo [4,3-b]pyridin-5-yl)-1H-pyrazol-3-yl)methanol] | > 10 | 0
0.929 | Cn1cc(-c2ccc3[nH]nc(-c4nc5c(-c6ccc7c(c6)OCO7)cccc5[nH]4)c3n2)c(CO)n1 [Compound 1152, (4-(3-(4-(Benzo[d][1,3]dioxol-5-yl)-1H-benzo[d]imidazol-2-yl)-1H-pyrazolo[4,3-b]pyridin-5-yl)-1-methyl-1H-pyrazol-3-yl)methanol] | > 10 | 0

Reference: patent publication US10392383B2, “3-(1H-benzo[d]imidazol-2-yl)-1H-pyrazolo[4,3-b]pyridines and therapeutic uses thereof” (Samumed, LLC, priority 2015, dated 2019)
